Laboratory results as given in the supplement of paper PMC10933113.
Counter-ions that a name gives are not always drawn. ± gives the uncertainty stated by the source.

Experiments:
THP-1 = assay: efficacy of IL-8 induction relative to DMSO (% activity); higher = stronger induction; conditions: exposure time: 18 h
[1] = tested on: lysine peptide Ac-RFAAKAA-COOH; assay: efficacy of lysine peptide change (negative = depletion) (% activity); higher = less depletion; conditions: incubation time: 24 h
[2] = tested on: cysteine peptide Ac-RFAACAA-COOH; assay: efficacy of cysteine peptide change (negative = depletion) (% activity); higher = less depletion; conditions: incubation time: 24 h
[3] = tested on: KeratinoSens (HaCaT ARE-luciferase) cells; assay: efficacy of ARE luciferase induction relative to DMSO (% activity over DMSO); higher = stronger induction; conditions: exposure time: 24 h
[4] = tested on: KeratinoSens (HaCaT ARE-luciferase) cells; assay: cytotoxicity AC50 (CellTiter-Fluor viability); higher = less cytotoxic; conditions: exposure time: 24 h

SMILES	efficacy of lysine peptide change [1]	efficacy of cysteine peptide change [2]	efficacy of IL-8 induction (THP-1)	efficacy of ARE luciferase induction [3]	cytotoxicity AC50 [4] [µM]
COP(=S)(OC)Oc1ccc(SC)c(C)c1 [Fenthion]	2.04 ± 28	0.74 ± 16	-2.61 ± 4.5	17.4 ± 5.5	–
CC(C)c1ccc2oc3nc(N)c(C(=O)O)cc3c(=O)c2c1 [Amlexanox]	7.32 ± 13	4.82 ± 8.3	8.52 ± 7.4	28.6 ± 29	–
CCNc1nc(NC(C)(C)C)nc(SC)n1 [Terbutryn]	139 ± 22	21.4 ± 20	4.42 ± 7.7	8.44 ± 7.8	–
CC(=O)C1(C)CC2=C(CCCC2(C)C)CC1C (stereo not given)	3.3 ± 5.7	-16.5 ± 5.3	5.26 ± 9.1	13.2 ± 8.8	–
c1cc(OCC2CO2)ccc1Cc1ccc(OCC2CO2)cc1 (stereo not given) [Bis[4-(glycidyloxy)phenyl]methane]	62.7 ± 21	-4.82 ± 8.3	-2.51 ± 4.3	-12 ± 59	57 ± 12
[OH-].c1cc[c]([Sn+]([c]2ccccc2)[c]2ccccc2)cc1 [Triphenyltin hydroxide]	14.6 ± 2.5	-39.1 ± 94	16.4 ± 2.2	429 ± 120	2.82
O=[N+]([O-])c1cc([N+](=O)[O-])c2ccccc2c1 [1,3-Dinitronaphthalene]	-15.1 ± 14	-32.4 ± 17	0	29.3 ± 10	–
CCCCCCOc1ccc(O)cc1 [4-(Hexyloxy)phenol]	–	–	0.98 ± 10	20 ± 18	–
Nc1ccc(-c2ccccc2)cc1 [4-Biphenylamine hydrochloride]	-3.96 ± 11	-6.9 ± 6	0	12.3 ± 11	–
Cc1ccc(N=C=O)cc1N=C=O [Toluene-2,4-diisocyanate]	-3.03 ± 21	-19.2 ± 5	33 ± 3.5	82.9 ± 38	–
CC(C)c1ccc2cc(C(C)C)ccc2c1 [2,6-Diisopropylnaphthalene]	1.65 ± 26	7.33 ± 6.5	2.46 ± 4.3	28.7 ± 11	–
c1ccc(SCCSc2ccccc2)cc1 [1,2-Bis(phenylthio)ethane]	-9.19 ± 10	3.83 ± 6.6	0	40.6 ± 11	–
C#CCN(C)CCCOc1ccc(Cl)cc1Cl [Clorgyline hydrochloride]	20.7 ± 22	42.2 ± 21	0	43.6 ± 25	–
c1ccc(-c2cccc(-c3ccccc3)c2)cc1 [1,1':3',1''-Terphenyl]	7.59 ± 13	-4.8 ± 8.3	9.01 ± 8.6	21.9 ± 16	–
Oc1ccc(-c2ccccc2)cc1Cl [2-Chloro-4-phenylphenol]	3.75 ± 3.3	0.73 ± 13	3.65 ± 6.3	22.4 ± 9.2	–
COc1cc(Nc2c(C#N)cnc3cc(OCCCN4CCN(C)CC4)c(OC)cc23)c(Cl)cc1Cl [Bosutinib]	120 ± 29	32.5 ± 12	7.85 ± 7.5	-18.8 ± 8.1	12.6
NCCc1ccc(O)cc1 [Tyramine]	-1.41 ± 14	10.7 ± 18	0	17 ± 9	–
Nc1ccc([N+](=O)[O-])cc1N [4-Nitro-1,2-phenylenediamine]	1.34 ± 22	-16.4 ± 5.1	3.64 ± 4.4	46.2 ± 27	41.6 ± 5.3
O=[N+]([O-])c1cc(Cl)c(Cl)c(Cl)c1Cl [2,3,4,5-Tetrachloronitrobenzene]	-3.6 ± 17	-5.15 ± 8.9	49.5 ± 10	42.4 ± 36	44.9 ± 5.2
CC1=C(C(=O)Nc2ccccc2)S(=O)(=O)CCO1 [Oxycarboxin]	–	–	0	52.3 ± 47	32.9 ± 2.2
CCC(=O)C=Cc1ccc(OC)cc1 [1-(4-Methoxyphenyl)-1-pentene-3-one]	29.4 ± 1.8	-4.91 ± 8.5	0	-11.5 ± 51	–
Nc1ccc(Cl)cc1Cl [2,4-Dichloroaniline]	6.42 ± 18	0	8.9 ± 7.7	3.01 ± 5.2	–
O=C(O)c1ccc(=O)[nH]c1 [6-Hydroxynicotinic acid]	-6.78 ± 17	12.2 ± 12	0	27.8 ± 30	–

SMILES	efficacy of lysine peptide change [1]	efficacy of cysteine peptide change [2]	efficacy of IL-8 induction (THP-1)	efficacy of ARE luciferase induction [3]	cytotoxicity AC50 [4] [µM]
O=C(O)CCCCCCCCC(=O)O [Decanedioic acid]	3.76 ± 20	54.5	0.59 ± 6	5.23 ± 4.5	–
O=C(O)c1cn(C2CC2)c2cc(N3CCNCC3)c(F)cc2c1=O [Ciprofloxacin]	-2.18 ± 19	8.17 ± 8.2	0	14.6 ± 25	–
CCOC(=O)NC(=S)Nc1ccccc1NC(=S)NC(=O)OCC [Thiophanate]	34.5 ± 10	-5.09 ± 4.7	3.6 ± 6.2	98.8 ± 100	–
C=C(C)C(=O)Nc1ccc(Cl)c(Cl)c1 [Chloranocryl]	82.1 ± 16	4.33 ± 7.5	1.33 ± 7.2	23.2 ± 7	–
CC[C@H]1CC[C@H](NCc2cc3c(cc2OC)[C@H]2C[C@H]2C(=O)N3C)[C@H](c2ccccc2)N1	–	–	18.9 ± 3.4	82.8 ± 33	26.4 ± 4.7
CC(C)(C)c1ccc(C(=O)CCCCl)cc1 [4'-Tert-butyl-4-chlorobutyrophenone]	17.7 ± 16	94.9	0	38.6 ± 9.4	–
CCCCCCCCCCCCO [1-Dodecanol]	-9.21 ± 17	0	0	9.49 ± 13	–
CCCCCCCC(=O)Oc1c(Br)cc(C#N)cc1Br [Bromoxynil octanoate]	-17.8 ± 10	-2.83 ± 4.9	0	2.61 ± 12	–
CCC(C)(NC(=O)c1cc(Cl)c(C)c(Cl)c1)C(=O)CCl (stereo not given) [Zoxamide]	19.4 ± 7.3	-8.25 ± 7.4	84.9 ± 14	60.2 ± 4.2	41.4 ± 2.8
COc1ccc2[nH]cc(CCN(C(C)C)C(C)C)c2c1 [5-Methoxy-N,N-diisopropyltryptamine hydrochloride]	138 ± 57	-5.5 ± 9.5	1.45 ± 2.5	19.1 ± 7.6	–
CCOP(=S)(OCC)Oc1cnc2ccccc2n1 [Quinalphos]	10.6 ± 9.3	97.5 ± 350	7.62 ± 6.8	37.5 ± 24	–
c1ccc(-c2ccccn2)nc1 [2,2'-Dipyridyl]	-0.86 ± 12	-15.1 ± 3.5	0	45.2 ± 39	–
CC(C)(C)C(=O)CCl [1-Chloro-3,3-dimethyl-butan-2-one]	-4.45 ± 16	-43.1 ± 7.6	5.09 ± 4.6	26.8 ± 9.2	–
CCCCOCCOCCOCCO [2-[2-(2-Butoxyethoxy)ethoxy]ethanol]	207 ± 33	37.2 ± 7.3	3.34 ± 5.8	75.4 ± 120	–
CC(=O)Oc1ccc(C(c2ccc(OC(C)=O)cc2)c2ccccn2)cc1 [Bisacodyl]	26.8 ± 7.9	3.97 ± 6.9	0	30.5 ± 18	–
CCC(C)(c1ccc(O)cc1)c1ccc(O)cc1 [Bisphenol B]	31.9 ± 11	2.81 ± 4.9	9.18 ± 8.1	38.7 ± 21	–
CCCCCCC(C)O (stereo not given) [2-Octanol]	-5.58 ± 9.7	0	0	0	–
CCC(C)(CC)c1cc(NC(=O)c2c(OC)cccc2OC)on1 [Isoxaben]	47.2 ± 16	21.1 ± 6.2	2.21 ± 15	20.2 ± 5.5	–
CCCCCCCCCCCCOCCO [2-(Dodecyloxy)ethanol]	3.27 ± 16	73.8	-3.05 ± 5.3	8.82 ± 15	–
CCc1oc2ccccc2c1C(=O)c1cc(I)c(O)c(I)c1 [Benziodarone]	-10.2 ± 9.7	-8.72 ± 7.7	0	17.7 ± 22	–
COc1ccc(O)c(C(C)(C)C)c1 [2-tert-Butyl-4-methoxyphenol]	5.8 ± 5	-37.3 ± 14	1.96 ± 3.4	4.91 ± 25	–
CCCCCCCCCCC=CC1CC(=O)OC1=O (stereo not given) [3-(Dodecenyl)dihydro-2,5-furandione]	-22.7 ± 13	0	-1.83 ± 3.2	3.3 ± 5.7	–

Second part, led by results:

efficacy of lysine peptide change [1]	efficacy of cysteine peptide change [2]	SMILES	efficacy of IL-8 induction (THP-1)	efficacy of ARE luciferase induction [3]	cytotoxicity AC50 [4] [µM]
9.47 ± 3	2.33 ± 4	COc1ccc(C(=O)c2ccc(C)cc2)c(O)c1 [Mexenone]	10.8 ± 9.8	28 ± 31	–
4.84 ± 8.4	0	COP(=O)(O)OP(=O)(O)OC [Dimethyl dihydrogen diphosphate]	0	22.1 ± 30	–
109 ± 17	-45.7 ± 16	CCCCCCCCCCCCN(CCO)CCO [Lauryldiethanolamine]	30.1 ± 14	-12.7 ± 56	–
0.13 ± 15	-6.72 ± 6	CC(C)CC(NC(=O)OCC1c2ccccc2-c2ccccc21)C(=O)O (stereo in doubt) [N-(9-Fluorenylmethoxycarbonyl)-L-leucine]	6.39 ± 11	65 ± 53	–
93.9 ± 56	40.2 ± 6.4	O=C(O)c1cccnc1Nc1cccc(C(F)(F)F)c1 [Niflumic acid]	0	59.7 ± 37	–
-7.88 ± 7	-30.8 ± 9.8	Cc1cccc(N(C)C(=S)Oc2ccc3c(c2)C2CCC3C2)c1 (stereo not given) [Tolciclate]	22.4 ± 2.8	46.5 ± 33	–
103 ± 44	61.4 ± 19	CCCCCCCCCCCCCC[N+](C)(C)C [Tetradonium bromide]	43 ± 20	-21.2 ± 4.7	14.2 ± 1.6
114 ± 27	58.9 ± 18	C[n+]1cc2c3c(ccc2c2ccc4cc5c(cc4c21)OCO5)OCO3 [Sanguinarine]	59.1 ± 21	-34.7 ± 1.6	7.37 ± 0.5
168 ± 11	18 ± 19	CCCCCCCCCCCC(=O)NCCCN(C)C [N-[3-(Dimethylamino)propyl]dodecanamide]	36.3 ± 13	4.32 ± 44	42.1 ± 9.5
65.7 ± 12	1.83 ± 9.7	Clc1ccc(C(Cn2ccnc2)OCc2c(Cl)cccc2Cl)c(Cl)c1 (stereo not given) [Isoconazole]	8.24 ± 7.5	15 ± 17	13.1 ± 0.89
-4.75 ± 8.2	-44.3 ± 3.7	C=CCOC(=O)/C=C\C(=O)OCC=C [Diprop-2-en-1-yl (2Z)-but-2-enedioate]	3.9 ± 6.8	23.7 ± 6.3	–
21.8 ± 24	59.7 ± 11	COC(=O)CCCCCCCC(=O)OC [Dimethyl nonanedioate]	0	10.6 ± 13	–
90.6 ± 13	17.7 ± 6	Cc1c(C)n(Cc2ccccc2)c2ccc(C(=O)OCCN(C)C)cc12 [Indocate]	17 ± 9.1	22.8 ± 4.9	28.7 ± 6.6
50.2 ± 3.4	-1.8 ± 3.1	O=c1cc(-c2ccccc2)oc2ccccc12 [Flavone]	3.56 ± 6.2	27 ± 10	–
56.7 ± 8.3	-2.83 ± 4.9	CC(C(=O)O)c1ccc(/C=C2\CCCCC2=O)cc1 (stereo not given) [Pelubiprofen]	0	-2.46 ± 29	–
-8.69 ± 25	13.2 ± 15	COC(=O)Nc1nc2cc([S+]([O-])c3ccccc3)ccc2[nH]1 (stereo not given) [Oxfendazole]	2.33 ± 4	0	–
1.96 ± 25	-8.26 ± 7.2	Clc1ccc(C(Cn2ccnc2)OCc2ccc(Sc3ccccc3)cc2)c(Cl)c1 (stereo not given) [Fenticonazole nitrate]	3.64 ± 6.3	51.9 ± 25	–
58.9 ± 23	-19.7 ± 9.4	CC(C)(C)OC(=O)c1ccc(O)cc1 [tert-Butyl 4-hydroxybenzoate]	0	28.1 ± 9.8	–
0	-37 ± 6.3	CO[C@@]12[C@H](COC(N)=O)C3=C(C(=O)C(C)=C(N)C3=O)N1C[C@@H]1N[C@@H]12 [Mitomycin C]	12.9 ± 11	17.2 ± 24	–
-6.29 ± 6.4	0	CCCCCCCCN [n-Octylamine]	0	47.1 ± 74	–
2.82 ± 10	47 ± 2.6	CCOC(=O)CCC(=O)OCC [Diethyl butanedioate]	3.24 ± 5.6	24.9 ± 23	–
54.8 ± 7.6	-2.83 ± 4.9	CC(C)NC(=O)c1ccc(C=O)cc1 [N-isopropyl-4-formylbenzamide]	29.6 ± 51	32.9 ± 39	–
3.95 ± 6.8	-5.45 ± 4.8	CCCCCCCC/C=C\CCCCCCCC(=O)N(C)CC(=O)O [Oleyl sarcosine]	0	-5.73 ± 8.1	–
-8.37 ± 1.2	-39.2 ± 4.3	NC(=O)N/N=C/c1ccc([N+](=O)[O-])o1 [Nitrofurazone]	0	37 ± 47	–
10.7 ± 13	9.93 ± 10	O=C(Oc1ccccc1)c1ccccc1O [Phenyl salicylate]	0	8.07 ± 11	–
34.2 ± 19	0.29 ± 11	CC(=O)Oc1ccc(C2(c3ccc(OC(C)=O)cc3)C(=O)Nc3ccccc32)cc1 [Oxyphenisatin acetate]	0	49 ± 42	–
64.1 ± 7.7	-4.4 ± 7.6	CCCCCOc1ccccc1/C(=C\SC)n1ccnc1 [Neticonazole]	23.6 ± 1.8	21.4 ± 9.5	–
